Measured values as given in article PMC8102066 (eLife, 2021).
Where “and” joins values, the source holds several entries; their conditions need not be identical. Identical values can stand only once. Like-named read-outs stand apart in the source and are kept apart here.

Assays:
mGluR2-C121A-I779A = molecular target: T1, mGluR2-C121A-I779A (Rattus norvegicus, UniProt P31421, C121A/I779A); assay: SiMPull subunit counting in the presence of ligands; details: SNAP-mGluR2-C121A-I779A in presence of the ligand; single replicates per experiment day
T1 construct: expressed in transfected cells; host or cells: HEK 293 T (detergent lysate, pulled down by anti-HA antibody)

mGluR3-3xTM4 [1] = molecular target: mGluR3-3xTM4 (Rattus norvegicus, UniProt P31422, F690A/G694A/INS669ASEIGTGFPFDPHYVEVLGERMHYVDVGPRDGTPVLFLHGNPTSSYVWRNIIPHVAPTHRCIAPDLIGMGKSDKPDLGYFFDDHVRFMDAFIEALGLEEVVLVIHDWGSALGFHWAKRNPERVKGIAFMEFIRPIPTWDEWPEFARETFQAFRTTDVGRKLIIDQNVFIEGTLPMGVVRPLTEVEMDHYREPFLNPVDREPLWRFPNELPIAGEPANIVALVEEYMDWLHQSPVPKLLFWGTPGVLIPPAEAARLAKSLPNCKAVDIGPGLNLLQEDNPDLIGSEIARWLSTLEISGLE/S686A); assay: Inter-TMD FRET sensor (HaloTag in ICL2), live cells; details: for FRET response amplitude: mGluR3-3xTM4, inter-TMD FRET
mGluR3-C127A-3xTM4 = mGluR3-C127A-3xTM4 (Rattus norvegicus, UniProt P31422, C127A/F690A/G694A/S686A); assay: SiMPull subunit counting in the presence of ligands; details: SNAP-mGluR3-C127A-3xTM4 in presence of the ligand; single replicates per experiment day
mGluR3 = mGluR3 (Rattus norvegicus, UniProt P31422); assay: GIRK channel whole cell patch clamp in HEK 293 T cells; details: for GIRK current amplitude: mGluR3
mGluR2-3xTM4 [2] = molecular target: T2, mGluR2-3xTM4 (Rattus norvegicus, UniProt P31421, A677S/A681F/A685G); assay: Inter-LBD FRET (N-terminal SNAP-tags), live cells; details: mGluR2-3xTM4, inter-LBD FRET
mGluR2-I779A = molecular target: T3, mGluR2-I779A (Rattus norvegicus, UniProt P31421, I779A); assay: Inter-TMD FRET sensor (HaloTag in ICL2), live cells; assay type: cell-based; details: for FRET response amplitude: mGluR2-I779A, inter-TMD FRET
T3 construct: we performed calcium imaging experiments with mutations in the full-length mGluR2 background; expressed in transfected cells; host or cells: HEK 293 T
From the text: Next, we asked how perturbing the TM6 interface would alter the conformational dynamics detected by our TMD FRET sensors.

mGluR2-P778A = molecular target: T4, mGluR2-P778A (Rattus norvegicus, UniProt P31421, P778A); assay: Calcium imaging in HEK 293 T cells; assay type: cell-based
T4 construct: we performed calcium imaging experiments with mutations in the full-length mGluR2 background; expressed in transfected cells; host or cells: HEK 293 T
Protocol: (§1) Approximately 30 ROIs were analyzed per movie.

mGluR3-G694A = mGluR3-G694A (Rattus norvegicus, UniProt P31422, G694A); assay: Calcium imaging in HEK 293 T cells; details: for Calcium response amplitude: mGluR3-G694A
mGluR2-C121A-3xTM4-I779A = molecular target: T5, mGluR2-C121A-3xTM4-I779A (Rattus norvegicus, UniProt P31421, A677S/A681F/A685G/C121A/I779A); assay: SiMPull subunit counting in the presence of ligands; details: SNAP-mGluR2-C121A-3xTM4-I779A in presence of the ligand; single replicates per experiment day
T5 construct: expressed in transfected cells; host or cells: HEK 293 T (detergent lysate, pulled down by anti-HA antibody)

mGluR2-C121A = molecular target: T6, mGluR2-C121A (Rattus norvegicus, UniProt P31421, C121A); assay: as above; details: SNAP-mGluR2-C121A in presence of the ligand; single replicates per experiment day
T6 construct: expressed in transfected cells; host or cells: HEK 293 T (detergent lysate, pulled down by anti-HA antibody)

mGluR3-3xTM4 [3] = molecular target: mGluR3-3xTM4 (Rattus norvegicus, UniProt P31422, F690A/G694A/S686A); assay: Calcium imaging (G protein chimera, GCaMP6f) in HEK 293 T cells; details: for Calcium response amplitude: normalized to 1 mM glutamate, replicates
mGluR2-I779W = molecular target: T7, mGluR2-I779W (Rattus norvegicus, UniProt P31421, I779W); assay: Calcium imaging in HEK 293 T cells; assay type: cell-based; design: scale not given here
T7 construct: we performed calcium imaging experiments with mutations in the full-length mGluR2 background; expressed in transfected cells; host or cells: HEK 293 T
Protocol: as §1

mGluR2-3xTM4 [4] = molecular target: T2, mGluR2-3xTM4; assay: GIRK channel whole cell patch clamp in HEK 293 T cells
mGluR3-S686A = mGluR3-S686A (Rattus norvegicus, UniProt P31422, S686A); assay: Calcium imaging in HEK 293 T cells
[5] = read-out: Glutamate EC50 (micromolar), calcium imaging, Fig 3F source data
[6] = read-out: Glutamate EC50, calcium imaging, normalized to saturating (1 mM) glutamate

T2 sequence (P31421 19-872 A677S/A681F/A685G): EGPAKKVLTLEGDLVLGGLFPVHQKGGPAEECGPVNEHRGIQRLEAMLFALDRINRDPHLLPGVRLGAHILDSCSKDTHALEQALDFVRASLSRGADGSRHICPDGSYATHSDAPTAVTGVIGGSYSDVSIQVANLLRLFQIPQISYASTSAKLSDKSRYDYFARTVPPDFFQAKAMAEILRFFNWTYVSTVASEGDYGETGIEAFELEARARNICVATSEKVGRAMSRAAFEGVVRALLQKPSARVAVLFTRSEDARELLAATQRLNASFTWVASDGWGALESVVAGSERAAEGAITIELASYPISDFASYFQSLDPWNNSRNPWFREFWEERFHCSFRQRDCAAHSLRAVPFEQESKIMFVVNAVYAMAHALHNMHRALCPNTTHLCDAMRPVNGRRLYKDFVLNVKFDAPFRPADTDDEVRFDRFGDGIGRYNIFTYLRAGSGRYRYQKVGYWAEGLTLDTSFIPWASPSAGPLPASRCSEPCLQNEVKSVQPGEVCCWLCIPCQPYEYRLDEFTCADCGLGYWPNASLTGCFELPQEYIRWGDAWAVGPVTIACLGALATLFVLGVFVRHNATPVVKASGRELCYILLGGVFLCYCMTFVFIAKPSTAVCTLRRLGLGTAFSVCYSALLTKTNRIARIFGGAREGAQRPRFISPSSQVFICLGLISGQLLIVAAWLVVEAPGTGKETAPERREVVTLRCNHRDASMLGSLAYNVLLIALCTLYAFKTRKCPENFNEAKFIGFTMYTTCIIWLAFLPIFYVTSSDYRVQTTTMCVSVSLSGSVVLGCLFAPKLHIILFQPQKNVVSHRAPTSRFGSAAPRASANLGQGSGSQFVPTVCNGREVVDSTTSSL
Sequence of mGluR3 (P31422 23-879): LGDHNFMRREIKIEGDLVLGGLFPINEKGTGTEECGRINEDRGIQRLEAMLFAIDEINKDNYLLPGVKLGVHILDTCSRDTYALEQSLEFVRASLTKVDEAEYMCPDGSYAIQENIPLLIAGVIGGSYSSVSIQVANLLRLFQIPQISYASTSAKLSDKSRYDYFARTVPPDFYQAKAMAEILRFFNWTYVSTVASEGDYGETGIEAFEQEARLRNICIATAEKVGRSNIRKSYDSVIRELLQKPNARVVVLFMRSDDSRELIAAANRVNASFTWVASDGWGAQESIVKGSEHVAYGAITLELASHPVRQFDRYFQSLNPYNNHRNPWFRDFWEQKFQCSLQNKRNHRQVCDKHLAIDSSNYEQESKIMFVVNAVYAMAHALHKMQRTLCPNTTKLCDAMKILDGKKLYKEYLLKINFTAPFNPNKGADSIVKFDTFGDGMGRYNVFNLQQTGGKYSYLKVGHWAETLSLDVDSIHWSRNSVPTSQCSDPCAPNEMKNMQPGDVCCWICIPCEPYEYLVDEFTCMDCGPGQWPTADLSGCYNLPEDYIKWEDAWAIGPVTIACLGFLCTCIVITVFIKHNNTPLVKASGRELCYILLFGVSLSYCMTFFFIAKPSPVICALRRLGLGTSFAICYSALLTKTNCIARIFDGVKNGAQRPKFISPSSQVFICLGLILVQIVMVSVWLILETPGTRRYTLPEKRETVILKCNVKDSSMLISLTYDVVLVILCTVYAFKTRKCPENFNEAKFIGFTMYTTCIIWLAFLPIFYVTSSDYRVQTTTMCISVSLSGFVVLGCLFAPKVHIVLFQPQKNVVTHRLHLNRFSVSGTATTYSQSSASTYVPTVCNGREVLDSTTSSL
T4 sequence (P31421 19-872 P778A): as the sequence (P31421 19-872 A677S/A681F/A685G) above, with S659A, F663A, G667A, P760A counted along it
Sequence of UniProt P31422 (P31422 with tags, fused parts or gaps with the stated changes): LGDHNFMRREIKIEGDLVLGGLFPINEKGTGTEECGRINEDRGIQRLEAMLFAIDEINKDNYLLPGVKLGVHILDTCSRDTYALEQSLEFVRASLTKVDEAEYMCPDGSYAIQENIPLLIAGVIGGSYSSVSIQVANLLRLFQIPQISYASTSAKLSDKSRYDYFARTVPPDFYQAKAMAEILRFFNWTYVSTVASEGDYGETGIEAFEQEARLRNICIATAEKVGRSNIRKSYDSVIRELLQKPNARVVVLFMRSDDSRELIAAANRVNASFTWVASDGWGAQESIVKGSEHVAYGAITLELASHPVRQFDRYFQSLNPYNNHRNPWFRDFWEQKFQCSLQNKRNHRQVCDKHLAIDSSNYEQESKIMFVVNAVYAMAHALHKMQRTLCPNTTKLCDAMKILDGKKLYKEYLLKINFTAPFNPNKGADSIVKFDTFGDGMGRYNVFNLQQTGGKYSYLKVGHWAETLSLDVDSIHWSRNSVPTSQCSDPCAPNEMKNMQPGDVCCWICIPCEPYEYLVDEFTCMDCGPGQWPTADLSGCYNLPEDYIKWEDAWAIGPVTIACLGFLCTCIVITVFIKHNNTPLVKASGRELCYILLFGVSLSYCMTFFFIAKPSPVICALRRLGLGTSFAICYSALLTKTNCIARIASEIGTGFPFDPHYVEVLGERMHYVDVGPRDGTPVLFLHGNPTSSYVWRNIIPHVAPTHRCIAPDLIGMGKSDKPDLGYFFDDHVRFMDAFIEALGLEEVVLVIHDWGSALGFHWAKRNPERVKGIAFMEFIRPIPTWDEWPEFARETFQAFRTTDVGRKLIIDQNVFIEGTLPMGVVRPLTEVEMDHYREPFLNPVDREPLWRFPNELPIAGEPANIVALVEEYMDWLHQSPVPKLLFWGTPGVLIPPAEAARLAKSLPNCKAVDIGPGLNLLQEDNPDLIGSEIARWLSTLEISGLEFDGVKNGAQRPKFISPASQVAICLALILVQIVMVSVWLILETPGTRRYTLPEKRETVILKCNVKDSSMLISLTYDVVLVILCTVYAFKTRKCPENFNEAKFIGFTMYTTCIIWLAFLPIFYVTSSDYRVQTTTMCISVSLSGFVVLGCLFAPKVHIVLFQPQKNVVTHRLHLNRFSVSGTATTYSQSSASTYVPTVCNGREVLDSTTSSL
Sequence of mGluR3-G694A (P31422 23-879 G694A): as the sequence (P31422 23-879) above, with G672A counted along it
T7 sequence (P31421 19-872 I779W): as the sequence (P31421 19-872 A677S/A681F/A685G) above, with S659A, F663A, G667A, I761W counted along it
T6 sequence (P31421 19-872 C121A): as the sequence (P31421 19-872 A677S/A681F/A685G) above, with C103A, S659A, F663A, G667A counted along it
Sequence of mGluR3-C127A-3xTM4 (P31422 23-879 C127A/S686A/F690A/G694A): as the sequence (P31422 23-879) above, with C105A, S664A, F668A, G672A counted along it
T5 sequence (P31421 19-872 C121A/A677S/A681F/A685G/I779A): as the sequence (P31421 19-872 A677S/A681F/A685G) above, with C103A, I761A counted along it
T1 sequence (P31421 19-872 C121A/I779A): as the sequence (P31421 19-872 A677S/A681F/A685G) above, with C103A, S659A, F663A, G667A, I761A counted along it
T3 sequence (P31421 19-872 I779A): as the sequence (P31421 19-872 A677S/A681F/A685G) above, with S659A, F663A, G667A, I761A counted along it
Sequence of mGluR3-3xTM4 (Rattus norvegicus, UniProt P31422, F690A/G694A/S686A) (P31422 23-879 S686A/F690A/G694A): as the sequence (P31422 23-879) above, with S664A, F668A, G672A counted along it
Sequence of mGluR3-S686A (P31422 23-879 S686A): as the sequence (P31422 23-879) above, with S664A counted along it

## N[C@@H](CCC(=O)O)C(=O)O [glutamate]
mGluR2-C121A-I779A
  % Dimerization: 54.00% and 69.67% and 69.76% and 51.05% and 59.66% and 56.67%
mGluR3-3xTM4 [1]; Glutamate 1 nM
  FRET response amplitude: 0.00
mGluR3-3xTM4 [1]; Glutamate 100 nM
  FRET response amplitude: 0.20 and 0.12 and 0.17 and 0.16 and 0.13 and 0.21
mGluR3-3xTM4 [1]; Glutamate 1 uM
  FRET response amplitude: 0.69 and 0.42 and 0.65 and 0.66
mGluR3-3xTM4 [1]; Glutamate 10 uM
  FRET response amplitude: 0.75 and 0.99 and 0.89
mGluR3-3xTM4 [1]; Glutamate 100 uM
  FRET response amplitude: 0.80 and 0.96
mGluR3-3xTM4 [1]; Glutamate 1 mM
  FRET response amplitude: 1.00
mGluR3-3xTM4 [1]; read-out: Glutamate EC50, inter-TMD FRET, normalized to saturating (1 mM) glutamate, unit inferred
  EC50: 0.56 ± 0.1 µM
mGluR3-C127A-3xTM4
  % Dimerization: 75.71% and 66.43% and 55.31% and 68.06% and 59.35% and 70.85%
mGluR3; Glutamate 100 nM
  GIRK current amplitude: 0.155 and 0.145 and 0.126 and 0.149
mGluR3; Glutamate 1 uM
  GIRK current amplitude: 0.541 and 0.995 and 0.692
mGluR3; Glutamate 10 uM
  GIRK current amplitude: 0.818 and 1.150 and 0.770 and 0.856 and 1.007
mGluR3; Glutamate 100 uM
  GIRK current amplitude: 1.000
mGluR3; read-out: Glutamate EC50, GIRK activation, normalized to saturating (1 mM) glutamate, unit inferred
  EC50: 0.43 ± 0.1 µM
mGluR2-3xTM4 [2]; Glutamate 10 nM
  FRET response amplitude: 0.00
mGluR2-3xTM4 [2]; Glutamate 100 nM
  FRET response amplitude: 0.00
mGluR2-3xTM4 [2]; Glutamate 3 uM
  FRET response amplitude: 0.10
mGluR2-3xTM4 [2]; Glutamate 10 uM
  FRET response amplitude: 0.49 and 0.37
mGluR2-3xTM4 [2]; Glutamate 100 uM
  FRET response amplitude: 1.00 and 0.97
mGluR2-3xTM4 [2]; Glutamate 1 mM
  FRET response amplitude: 1.00
mGluR2-I779A; Glutamate 10 nM
  FRET response amplitude: 0.00
mGluR2-I779A; Glutamate 100 nM
  FRET response amplitude: 0.00
mGluR2-I779A; Glutamate 1 uM
  FRET response amplitude: 0.00
mGluR2-I779A; Glutamate 100 uM
  FRET response amplitude: 0.75 and 0.90 and 0.82
mGluR2-I779A; Glutamate 1 mM
  FRET response amplitude: 1.00
mGluR2-I779A; inter-TMD FRET sensor, right shift
  change in glutamate EC50 compared to mGluR2: two-fold
mGluR2-P778A; Glutamate concentration 100 nM
  Calcium response amplitude: 0.00
mGluR2-P778A; Glutamate concentration 1 uM
  Calcium response amplitude: 0.48 and 0.50
mGluR2-P778A; Glutamate concentration 10 uM
  Calcium response amplitude: 0.94 and 0.87
mGluR2-P778A; Glutamate concentration 1 mM
  Calcium response amplitude: 1.00
mGluR3-G694A; Glutamate 10 nM
  Calcium response amplitude: 0.00
mGluR3-G694A; Glutamate 5 uM
  Calcium response amplitude: 0.50 and 0.59 and 0.67
mGluR3-G694A; Glutamate 10 uM
  Calcium response amplitude: 0.98
mGluR3-G694A; Glutamate 100 uM
  Calcium response amplitude: 1.00
mGluR3-G694A; Glutamate 1 mM
  Calcium response amplitude: 1.00
mGluR3-G694A; [5]
  EC50: 4.65 µM
mGluR3-G694A; [6]
  EC50: 4.66 ± 0.03 µM
mGluR2-C121A-3xTM4-I779A
  % Dimerization: 44.05% and 34.78% and 55.93% and 49.13% and 47.14% and 45.12%
mGluR2-C121A
  % Dimerization: 86.45% and 81.10% and 91.37% and 96.00% and 70.30% and 76.67%
mGluR3-3xTM4 [3]; Glutamate 100 nM
  Calcium response amplitude: 0.028 and 0.00
mGluR3-3xTM4 [3]; Glutamate 300 nM
  Calcium response amplitude: 0.11 (2×) and 0.00 (2×)
mGluR3-3xTM4 [3]; Glutamate 3 uM
  Calcium response amplitude: 0.32 and 0.20 and 0.21 and 0.35
mGluR3-3xTM4 [3]; Glutamate 10 uM
  Calcium response amplitude: 0.27 and 0.56 and 0.69
mGluR3-3xTM4 [3]; Glutamate 100 uM
  Calcium response amplitude: 0.89 and 0.81
mGluR3-3xTM4 [3]; [5]
  EC50: 11 µM
mGluR3-3xTM4 [3]; [6]
  EC50: 11 ± 0.1 µM
mGluR2-I779W; Glutamate concentration 10 nM
  Calcium response amplitude: 0.00
mGluR2-I779W; Glutamate concentration 5 uM
  Calcium response amplitude: 0.52 and 0.53
mGluR2-I779W; Glutamate concentration 10 uM
  Calcium response amplitude: 0.95 and 0.79 and 0.94 and 0.76
mGluR2-I779W; Glutamate concentration 100 uM
  Calcium response amplitude: 1.00
mGluR2-I779W; Glutamate concentration 1 mM
  Calcium response amplitude: 1.00
mGluR2-3xTM4 [4]; Glutamate 10 nM
  GIRK current amplitude: 0.000
mGluR2-3xTM4 [4]; Glutamate 100 uM
  GIRK current amplitude: 0.955 and 1.148 and 1.101
mGluR2-3xTM4 [4]; Glutamate 1 mM
  GIRK current amplitude: 1.000
mGluR3-S686A; [5]
  EC50: 5.11 µM
mGluR3-S686A; [6]
  EC50: 5.12 ± 0.06 µM
